{"source": "patent US20240102022A1", "about": "“MODULATING BONE MORPHOGENIC PROTEIN (BMP) SIGNALING IN THE TREATMENT OF ALZHEIMER'S DISEASE” (CZ Biohub SF, LLC, priority 2020, published 2024)", "key": {"[1]": {"test_system": "Zsgreen control neurospheres", "test": "Colony counts of Zsgreen-infected control human fetal neurospheres after 1 week of treatment", "assay_type": "cell-based", "conditions": "1 week treatment; FIG. 5E", "description": "(§1) A human fetal neural stem cell line from University of California Irvine was developed from fetal neural tissue at 18 week gestational age enriched for CD133+ cells. The use of neural progenitor cells as non-hESC stem cells in this study is compliant to Stanford Stem Cell Research Oversight (SCRO) Protocol 194 pre-approved by the Internal Review Board (IRB)/SCRO of the Stanford Research Compliance Office (RCO). Informed consent was obtained, and standard material transfer agreement signed. Cells were grown in nonadherent ultra-low attachment well plates in X-VIVO 15 media (LONZA) supplemented with LIF (10 ng/ml), N2 Supplement, N-acetylcysteine (63 ug/ml), Heparin (2 ug/ml), EGF (20 ng/ml), and FGF (20 ng/ml).\n(§2) cDNA for mutant APP harboring the Swedish and Indiana mutations was cloned into a pHIV-Zsgreen backbone obtained from Addgene. Lipofectamine 2000 was used to transduce the construct (either pHIV-Zsgreen+mutant APP or pHIV-Zsgreen alone) into H293T cells and media was collected after 48 hours. Virus was ultra-centrifuged and resuspended in PBS then titered before infecting human fetal neurospheres.\nHuman neurospheres were dissociated into single cells and infected with either a lentiviral construct containing pHIV-Zsgreen+mutant APP or pHIV-Zsgreen alone and allowed to grow for a week. […] Colonies were counted after 7 days."}, "[2]": {"test_system": "phospho-SMAD 1/5/8 in human fetal neurospheres expressing mutant APP", "test": "phospho-SMAD 1/5/8 immunofluorescence staining in neurospheres treated with BMP receptor inhibitor", "assay_type": "cell-based", "conditions": "neurospheres treated for 1 week, different doses; FIGS. 5B and C", "description": "as §1, §2\nNeurospheres were cytospun onto slides and fixed in ice-cold methanol for 5 minutes. Slides were rinsed 3 times in phosphate-buffered saline (PBS) at room temperature, followed by blocking in 3% BSA in PBS for 1 hour at room temperature. […]"}}}
{"smiles": "c1ccc2c(-c3cnn4cc(-c5ccc(N6CCNCC6)cc5)cnc34)ccnc2c1", "note": "[LDN-193189]", "values": [{"measurement": "impact on Zsgreen control neurosphere growth", "setting": "[1]", "result": "minimal impact"}, {"measurement": "pSMAD 1/5/8 level after treatment", "setting": "[2]", "result": "substantially decreased"}]}
